Results taken from article PMC9037210, “Novel 3-(6-methylpyridin-2-yl)coumarin-based chalcones as selective inhibitors of cancer-related carbonic anhydrases IX and XII endowed with anti-proliferative activity” (Journal of Enzyme Inhibition and Medicinal Chemistry, 2022).

Tests used:
UACC-257 = experiment: NCI single (10 µM) dose SRB screening, UACC-257; format: cell-based, human; conditions: 10 µM single dose, UACC-257, Melanoma
Protocol: (§1) Following NCI protocol, sixteen MPCs were screened for their potential in vitro anticancer effects against human 59 cancer cell panels including prostate, leukaemia melanoma, colon, breast, CNS, renal, NSCLC, and ovarian cancers by National Cancer Institute (USA)[30].
(§2) The antiproliferative activities of MPC 3 and MPCs 5a–o were first evaluated in a 10 µM dose assay, with SRB assay used to determine cell survival and proliferation. […] The results of the cell growth inhibitory activities for MPCs 5g and 5l towards the different treated tumour cell lines were presented as GI% and presented in Table 3.
(§3) The anticancer test was conducted using the methods of the Drug Evaluation Branch, National Cancer Institute, Bethesda, MD, using 59 human tumour cell lines derived from nine human tissues. The GI50, TGI, and LC50 dose-response parameters were calculated for each medication.

SK-MEL-5 = experiment: NCI single (10 µM) dose SRB screening, SK-MEL-5; format: cell-based, human; conditions: 10 µM single dose, SK-MEL-5, Melanoma
Protocol: as §1, §2, §3

hCA IX = target: T1, hCA IX (Homo sapiens, UniProt Q16790); experiment: stopped-flow CO2 hydrase assay, hCA IX; format: biochemical; conditions: for Selectivity index (SI) (KI off-target CA/KI target CA) Towards hCA IX: ratio of KI for hCA I and II relative to hCA IX; for Ki: stopped-flow, incubation time of 6 h, mean of three assays, read-out: KI CA IX
T1 construct: made in house
Protocol: (§4) The newly synthesised MPCs (3 and 5a–o) were assessed for their CA inhibition activity employing the stopped-flow CO2 hydrase assay[29] for constitutional hCA (I/II) isoforms and cancer-linked hCA (IX/XII) isoforms.
(§5) The CA inhibition activity for the herein reported MPC derivatives was evaluated against the hCA isoforms I, II, IX, and XII using stopped-flow CO2 hydrase test[7]^,[33–36] (see the Supplementary Material).
(§6) Carbonic anhydrase inhibition assay
(§7) The carbonic anhydrase catalyzed CO2 hydration actions for all coumarin-based […]
(§8) Photophysics stopped-flow. The enzymes are recombinant proteins prepared in our lab. Phenol red (at a concentration of 0.2 mM) has been used as indicator, working at […]
(§9) mM Na2SO4 (for maintaining constant the ionic strength), following the initial rates of the CA-catalyzed CO2 hydration reaction for a period of 10-100 s. The CO2 concentrations ranged from 1.7 to 17 mM for the determination of the kinetic parameters and inhibition constants. For each inhibitor at least six traces of the initial 5-10% of the reaction have been used for determining the initial velocity. The uncatalyzed rates were determined in the same manner and subtracted from the total observed rates. Stock solutions of inhibitor (0.1 mM) were prepared in distilled-deionized water and dilutions up to 0.01 nM were done thereafter with the assay buffer. Inhibitor and enzyme solutions were preincubated together for 6 hrs. at room temperature prior to assay, in order to allow for the formation of the E-I complex. The inhibition constants were obtained by non-linear least-squares methods using PRISM 3 and the Cheng-Prusoff equation, and represent the mean from at least three different

NCI-H322M = experiment: NCI single (10 µM) dose SRB screening, NCI-H322M; format: cell-based, human; conditions: 10 µM single dose, NSC lung cancer
Protocol: as §1, §2, §3

[1] = test system: 59 human tumour cell lines; experiment: NCI single (10 µM) dose screening, whole panel; format: cell-based; conditions: 10 µM single dose; for Sensitive cells no.: number of the 59 cell lines with GI % more than 20%; for inhibition at 10 µM: Homo sapiens, SRB assay, mean over NCI panel, read-out: mean percentage growth inhibition (mean% GI)
Protocol: as §1, §2, §3

NCI/ADR-RES = experiment: NCI single (10 µM) dose SRB screening, NCI/ADR-RES; format: cell-based, human; conditions: 10 µM single dose, Ovarian cancer
Protocol: as §1, §2, §3

RXF 393 = experiment: NCI single (10 µM) dose SRB screening, RXF 393; format: cell-based, human; conditions: 10 µM single dose, RXF 393, Renal cancer
Protocol: as §1, §2, §3

SR = experiment: NCI single (10 µM) dose SRB screening, SR; format: cell-based, human; conditions: 10 µM single dose, Leukaemia
Protocol: as §1, §2, §3

SW-620 = experiment: NCI single (10 µM) dose SRB screening, SW-620; format: cell-based, human; conditions: 10 µM single dose, SW-620, Colon cancer
Protocol: as §1, §2, §3

SK-MEL-2 = experiment: NCI single (10 µM) dose SRB screening, SK-MEL-2; format: cell-based, human; conditions: 10 µM single dose, SK-MEL-2, Melanoma
Protocol: as §1, §2, §3

NCI-H23 = experiment: NCI single (10 µM) dose SRB screening, NCI-H23; format: cell-based, human; conditions: 10 µM single dose, NCI-H23, NSC lung cancer
Protocol: as §1, §2, §3

RPMI-8226 = experiment: NCI single (10 µM) dose SRB screening, RPMI-8226; format: cell-based, human; conditions: 10 µM single dose, RPMI-8226, Leukaemia
Protocol: as §1, §2, §3

NCI-H460 = experiment: NCI single (10 µM) dose SRB screening, NCI-H460; format: cell-based, human; conditions: 10 µM single dose, NCI-H460, NSC lung cancer
Protocol: as §1, §2, §3

NCI-H226 = experiment: NCI single (10 µM) dose SRB screening, NCI-H226; format: cell-based, human; conditions: 10 µM single dose, NCI-H226, NSC lung cancer
Protocol: as §1, §2, §3

HT29 = experiment: NCI single (10 µM) dose SRB screening, HT29; format: cell-based, human; conditions: 10 µM single dose, HT29, Colon cancer
Protocol: as §1, §2, §3

UO-31 = experiment: NCI single (10 µM) dose SRB screening, UO-31; format: cell-based, human; conditions: 10 µM single dose, UO-31, Renal cancer
Protocol: as §1, §2, §3

A498 = experiment: NCI single (10 µM) dose SRB screening, A498; format: cell-based, human; conditions: 10 µM single dose, A498, Renal cancer
Protocol: as §1, §2, §3

OVCAR-5 = experiment: NCI single (10 µM) dose SRB screening, OVCAR-5; format: cell-based, human; conditions: 10 µM single dose, OVCAR-5, Ovarian cancer
Protocol: as §1, §2, §3

COLO 205 = experiment: NCI single (10 µM) dose SRB screening, COLO 205; format: cell-based, human; conditions: 10 µM single dose, COLO 205, Colon cancer
Protocol: as §1, §2, §3

MALME-3M = experiment: NCI single (10 µM) dose SRB screening, MALME-3M; format: cell-based, human; conditions: 10 µM single dose, Melanoma
Protocol: as §1, §2, §3

PC-3 = experiment: NCI single (10 µM) dose SRB screening, PC-3; format: cell-based, human; conditions: 10 µM single dose, PC-3, Prostate cancer
Protocol: as §1, §2, §3

MCF7 = experiment: NCI single (10 µM) dose SRB screening, MCF7; format: cell-based, human; conditions: 10 µM single dose, MCF7, Breast cancer
Protocol: as §1, §2, §3

K-562 = experiment: NCI single (10 µM) dose SRB screening, K-562; format: cell-based, human; conditions: 10 µM single dose, K-562, Leukaemia
Protocol: as §1, §2, §3

LOX IMVI = experiment: NCI single (10 µM) dose SRB screening, LOX IMVI; format: cell-based, human; conditions: 10 µM single dose, Melanoma
Protocol: as §1, §2, §3

M14 = experiment: NCI single (10 µM) dose SRB screening, M14; format: cell-based, human; conditions: 10 µM single dose, M14, Melanoma
Protocol: as §1, §2, §3

NCI-H522 = experiment: NCI single (10 µM) dose SRB screening, NCI-H522; format: cell-based, human; conditions: 10 µM single dose, NCI-H522, NSC lung cancer
Protocol: as §1, §2, §3

hCA XII = target: T2, hCA XII (Homo sapiens, UniProt O43570); experiment: stopped-flow CO2 hydrase assay, hCA XII; format: biochemical; conditions: for Selectivity index (SI) (KI off-target CA/KI target CA) Towards hCA XII: ratio of KI for hCA I and II relative to hCA XII; for Ki: stopped-flow, incubation time of 6 h, mean of three assays, read-out: KI CA XII
T2 construct: made in house
Protocol: as §4, §5, §6, §7, §8, §9

T2 sequence (O43570 25-354): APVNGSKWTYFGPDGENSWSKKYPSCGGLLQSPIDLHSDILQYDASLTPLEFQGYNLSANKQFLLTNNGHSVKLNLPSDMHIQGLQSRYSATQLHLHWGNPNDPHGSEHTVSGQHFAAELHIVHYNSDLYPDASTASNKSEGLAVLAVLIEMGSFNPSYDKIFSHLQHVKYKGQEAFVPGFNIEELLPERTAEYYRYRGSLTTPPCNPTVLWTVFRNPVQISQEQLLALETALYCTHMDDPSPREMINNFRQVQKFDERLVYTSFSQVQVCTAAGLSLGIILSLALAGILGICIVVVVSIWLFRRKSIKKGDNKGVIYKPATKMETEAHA

With Cc1nc(-c2cc3ccccc3oc2=O)ccc1C(=O)/C=C/c1ccccn1 [Compound 5l, 3-(6-Methyl-5-[(2E)-3-(pyridin-2-yl)prop-2-enoyl]pyridin-2-yl)-2H-chromen-2-one] the GI % (UACC-257) was “– (Only GI % more than 20% are displayed.)”, the GI % (SK-MEL-5) was “– (Only GI % more than 20% are displayed.)” and the “Selectivity index (SI) (KI off-target CA/KI target CA) Towards hCA IX” value (hCA IX) was >26.32. For the same compound, the Ki (hCA IX) was 3.8 µM, the GI % (NCI-H322M) was “– (Only GI % more than 20% are displayed.)” and the Sensitive cells no. [1] was 42. The inhibition at 10 µM [1] was 50%, the GI % (NCI/ADR-RES) was 22% and the GI % (RXF 393) was 67%. For the same compound, the GI % (SR) was 112%, the GI % (SW-620) was 98% and the GI % (SK-MEL-2) was “– (Only GI % more than 20% are displayed.)”. It also gave a GI % (NCI-H23) of 44%, a GI % (RPMI-8226) of 136% and a GI % (NCI-H460) of 58%. For the same compound, the GI % (NCI-H226) was “– (Only GI % more than 20% are displayed.)”, the GI % (HT29) was 97% and the GI % (UO-31) was 41%. The GI % (A498) was “– (Only GI % more than 20% are displayed.)”, the GI % (OVCAR-5) was 39% and the GI % (COLO 205) was “– (Only GI % more than 20% are displayed.)”. The GI % (MALME-3M) was “– (Only GI % more than 20% are displayed.)”, the GI % (PC-3) was 31% and the GI % (MCF7) was 91%. For the same compound, the GI % (K-562) was 92%, the GI % (LOX IMVI) was 184% and the GI % (M14) was “– (Only GI % more than 20% are displayed.)”. The GI % (NCI-H522) was 41%, the “Selectivity index (SI) (KI off-target CA/KI target CA) Towards hCA XII” value (hCA XII) was >108.70 and the Ki (hCA XII) was 0.92 µM.

With Cc1nc(-c2cc3ccccc3oc2=O)ccc1C(=O)/C=C/c1ccc(N2CCOCC2)cc1 [Compound 5g, 3-(6-Methyl-5-[(2E)-3-[4-(morpholin-4-yl)phenyl]prop-2-enoyl]pyridin-2-yl)-2H-chromen-2-one] the GI % (UACC-257) was “– (Only GI % more than 20% are displayed.)”, the GI % (SK-MEL-5) was 28% and the “Selectivity index (SI) (KI off-target CA/KI target CA) Towards hCA IX” value (hCA IX) was >8.33. The Ki (hCA IX) was 12 µM, the GI % (NCI-H322M) was “– (Only GI % more than 20% are displayed.)” and the Sensitive cells no. [1] was 31. For the same compound, the inhibition at 10 µM [1] was 28%, the GI % (NCI/ADR-RES) was 32% and the GI % (RXF 393) was “– (Only GI % more than 20% are displayed.)”. The GI % (SR) was 73%, the GI % (SW-620) was “– (Only GI % more than 20% are displayed.)” and the GI % (SK-MEL-2) was “– (Only GI % more than 20% are displayed.)”. For the same compound, the GI % (NCI-H23) was “– (Only GI % more than 20% are displayed.)”, the GI % (RPMI-8226) was “– (Only GI % more than 20% are displayed.)” and the GI % (NCI-H460) was “– (Only GI % more than 20% are displayed.)”. For the same compound, the GI % (NCI-H226) was “– (Only GI % more than 20% are displayed.)”, the GI % (HT29) was “– (Only GI % more than 20% are displayed.)” and the GI % (UO-31) was “– (Only GI % more than 20% are displayed.)”. For the same compound, the GI % (A498) was 24%, the GI % (OVCAR-5) was “– (Only GI % more than 20% are displayed.)” and the GI % (COLO 205) was “– (Only GI % more than 20% are displayed.)”. The GI % (MALME-3M) was 42%, the GI % (PC-3) was “– (Only GI % more than 20% are displayed.)” and the GI % (MCF7) was 48%. For the same compound, the GI % (K-562) was 62%, the GI % (LOX IMVI) was 68% and the GI % (M14) was 54%. For the same compound, the GI % (NCI-H522) was 38%, the “Selectivity index (SI) (KI off-target CA/KI target CA) Towards hCA XII” value (hCA XII) was >55.56 and the Ki (hCA XII) was 1.8 µM.
